Results published in paper PMC10004634 (PLOS ONE, 2023).
Where two headings read alike, the source gives them in different places.

What was measured:
Assay in all cases: biochemical
Design in all cases: KINOMEscan scanMAX competition binding, DNA-tagged kinases, qPCR read-out, percent control at 300 nM
EPHA2 = EPHA2 (Homo sapiens, UniProt P29317)
AKT3 = AKT3 (Homo sapiens, UniProt Q9Y243)
BRSK2 = biological target: T1, BRSK2 (Homo sapiens, UniProt Q8IWQ3)
T1 sequence (Q8IWQ3 1-736): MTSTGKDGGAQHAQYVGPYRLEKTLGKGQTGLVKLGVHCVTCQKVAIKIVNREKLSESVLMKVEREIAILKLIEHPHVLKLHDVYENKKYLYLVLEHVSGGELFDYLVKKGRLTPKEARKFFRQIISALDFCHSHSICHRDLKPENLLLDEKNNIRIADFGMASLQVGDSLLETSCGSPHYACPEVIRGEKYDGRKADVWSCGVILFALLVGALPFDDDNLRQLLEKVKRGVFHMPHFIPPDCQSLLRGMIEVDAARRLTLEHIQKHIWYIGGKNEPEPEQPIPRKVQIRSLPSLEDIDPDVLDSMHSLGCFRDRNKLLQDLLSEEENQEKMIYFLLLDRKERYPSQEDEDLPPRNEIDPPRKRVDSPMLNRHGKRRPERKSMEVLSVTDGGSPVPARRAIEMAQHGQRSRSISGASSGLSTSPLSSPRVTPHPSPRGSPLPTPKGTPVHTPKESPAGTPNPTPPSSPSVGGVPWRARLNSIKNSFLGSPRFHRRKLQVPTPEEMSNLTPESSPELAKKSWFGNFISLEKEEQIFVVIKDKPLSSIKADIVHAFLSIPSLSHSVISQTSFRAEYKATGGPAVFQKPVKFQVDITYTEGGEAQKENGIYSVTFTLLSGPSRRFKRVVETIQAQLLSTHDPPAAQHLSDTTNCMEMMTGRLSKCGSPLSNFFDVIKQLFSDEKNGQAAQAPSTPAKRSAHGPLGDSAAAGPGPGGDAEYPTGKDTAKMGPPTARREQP

[1] = biological target: T2, JAK1(JH1domain-catalytic) (Homo sapiens, UniProt P23458)
T2 construct: JH1domain-catalytic
T2 sequence (P23458 whole entry): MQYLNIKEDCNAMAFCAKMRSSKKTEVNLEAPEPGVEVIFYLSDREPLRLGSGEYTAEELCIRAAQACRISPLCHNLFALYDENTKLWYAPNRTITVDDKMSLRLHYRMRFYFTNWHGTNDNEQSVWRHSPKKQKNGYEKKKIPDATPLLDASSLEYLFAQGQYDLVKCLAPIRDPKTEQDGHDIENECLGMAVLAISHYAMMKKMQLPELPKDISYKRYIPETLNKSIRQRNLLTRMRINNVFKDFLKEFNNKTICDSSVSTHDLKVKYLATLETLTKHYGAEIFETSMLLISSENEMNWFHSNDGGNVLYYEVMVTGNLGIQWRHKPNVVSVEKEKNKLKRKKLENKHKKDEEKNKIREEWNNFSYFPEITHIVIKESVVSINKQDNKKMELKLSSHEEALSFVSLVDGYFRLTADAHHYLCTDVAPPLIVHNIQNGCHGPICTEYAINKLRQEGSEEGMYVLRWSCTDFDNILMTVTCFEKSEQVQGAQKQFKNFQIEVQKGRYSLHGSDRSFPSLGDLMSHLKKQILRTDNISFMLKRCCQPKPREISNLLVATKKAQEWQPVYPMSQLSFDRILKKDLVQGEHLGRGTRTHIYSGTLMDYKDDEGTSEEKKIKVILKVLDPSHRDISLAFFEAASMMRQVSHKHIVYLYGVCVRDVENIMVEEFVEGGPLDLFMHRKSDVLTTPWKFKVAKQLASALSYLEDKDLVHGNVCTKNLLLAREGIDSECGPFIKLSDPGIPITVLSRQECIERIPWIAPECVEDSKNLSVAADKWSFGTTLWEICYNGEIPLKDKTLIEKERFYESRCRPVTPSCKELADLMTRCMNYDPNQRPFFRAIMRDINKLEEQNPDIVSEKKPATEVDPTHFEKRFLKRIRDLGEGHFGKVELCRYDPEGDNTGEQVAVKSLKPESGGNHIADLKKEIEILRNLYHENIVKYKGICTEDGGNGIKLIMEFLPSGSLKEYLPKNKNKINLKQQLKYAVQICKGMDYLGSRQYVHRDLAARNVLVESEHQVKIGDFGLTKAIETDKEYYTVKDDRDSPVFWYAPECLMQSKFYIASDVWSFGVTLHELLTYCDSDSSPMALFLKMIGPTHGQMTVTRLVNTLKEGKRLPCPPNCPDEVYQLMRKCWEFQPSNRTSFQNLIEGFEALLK

EGFR(L858R) = EGFR(L858R) (Homo sapiens, UniProt P00533, L858R)
CAMK1D = CAMK1D (Homo sapiens, UniProt Q8IU85)
Chain of CAMK1D (Q8IU85 whole entry): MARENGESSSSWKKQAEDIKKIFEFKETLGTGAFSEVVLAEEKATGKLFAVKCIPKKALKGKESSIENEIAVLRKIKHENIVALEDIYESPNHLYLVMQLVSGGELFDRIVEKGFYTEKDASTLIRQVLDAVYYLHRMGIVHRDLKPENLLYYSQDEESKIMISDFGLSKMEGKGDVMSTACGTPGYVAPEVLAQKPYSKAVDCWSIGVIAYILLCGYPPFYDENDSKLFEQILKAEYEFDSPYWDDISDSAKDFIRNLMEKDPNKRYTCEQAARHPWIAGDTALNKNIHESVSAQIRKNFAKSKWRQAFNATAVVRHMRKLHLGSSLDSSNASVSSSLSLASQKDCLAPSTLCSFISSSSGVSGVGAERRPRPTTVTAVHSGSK

INSR = INSR (Homo sapiens, UniProt P06213)
TIE1 = TIE1 (Homo sapiens, UniProt P35590)
Chain of TIE1 (P35590 whole entry): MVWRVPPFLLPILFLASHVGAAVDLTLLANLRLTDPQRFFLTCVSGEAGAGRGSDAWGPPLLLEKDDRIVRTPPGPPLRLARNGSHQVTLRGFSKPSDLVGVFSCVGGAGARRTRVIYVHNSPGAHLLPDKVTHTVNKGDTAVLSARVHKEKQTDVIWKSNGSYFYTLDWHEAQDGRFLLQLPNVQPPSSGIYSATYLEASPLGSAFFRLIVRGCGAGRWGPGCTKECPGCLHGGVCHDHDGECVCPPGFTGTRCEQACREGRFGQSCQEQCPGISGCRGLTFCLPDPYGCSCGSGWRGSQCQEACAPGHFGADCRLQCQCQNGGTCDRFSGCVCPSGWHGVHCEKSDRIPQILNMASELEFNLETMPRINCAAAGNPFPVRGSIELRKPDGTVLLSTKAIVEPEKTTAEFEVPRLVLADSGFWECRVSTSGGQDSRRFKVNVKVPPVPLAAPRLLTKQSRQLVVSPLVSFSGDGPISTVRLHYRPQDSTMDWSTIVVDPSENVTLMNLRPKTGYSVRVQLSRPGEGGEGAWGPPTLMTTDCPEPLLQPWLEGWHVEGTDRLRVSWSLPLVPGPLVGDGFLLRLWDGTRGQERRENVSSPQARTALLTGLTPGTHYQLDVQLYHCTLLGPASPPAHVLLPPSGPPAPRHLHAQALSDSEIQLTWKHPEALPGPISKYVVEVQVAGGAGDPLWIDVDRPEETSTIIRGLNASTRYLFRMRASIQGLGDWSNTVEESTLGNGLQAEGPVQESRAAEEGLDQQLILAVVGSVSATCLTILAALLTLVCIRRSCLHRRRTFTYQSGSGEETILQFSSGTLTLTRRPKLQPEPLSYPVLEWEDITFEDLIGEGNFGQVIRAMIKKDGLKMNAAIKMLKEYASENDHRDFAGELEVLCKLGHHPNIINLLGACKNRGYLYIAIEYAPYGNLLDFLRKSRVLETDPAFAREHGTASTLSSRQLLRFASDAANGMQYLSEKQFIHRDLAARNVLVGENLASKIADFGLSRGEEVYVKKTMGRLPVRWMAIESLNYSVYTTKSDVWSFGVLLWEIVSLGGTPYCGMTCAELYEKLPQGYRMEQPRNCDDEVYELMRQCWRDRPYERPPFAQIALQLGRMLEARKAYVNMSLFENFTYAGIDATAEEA

TRKA = biological target: T3, TRKA (Homo sapiens, UniProt P04629)
T3 construct: gene NTRK1

PIK3CA(I800L) = PIK3CA(I800L) (Homo sapiens, UniProt P42336, I800L)
Chain of PIK3CA(I800L) (P42336 whole entry I800L): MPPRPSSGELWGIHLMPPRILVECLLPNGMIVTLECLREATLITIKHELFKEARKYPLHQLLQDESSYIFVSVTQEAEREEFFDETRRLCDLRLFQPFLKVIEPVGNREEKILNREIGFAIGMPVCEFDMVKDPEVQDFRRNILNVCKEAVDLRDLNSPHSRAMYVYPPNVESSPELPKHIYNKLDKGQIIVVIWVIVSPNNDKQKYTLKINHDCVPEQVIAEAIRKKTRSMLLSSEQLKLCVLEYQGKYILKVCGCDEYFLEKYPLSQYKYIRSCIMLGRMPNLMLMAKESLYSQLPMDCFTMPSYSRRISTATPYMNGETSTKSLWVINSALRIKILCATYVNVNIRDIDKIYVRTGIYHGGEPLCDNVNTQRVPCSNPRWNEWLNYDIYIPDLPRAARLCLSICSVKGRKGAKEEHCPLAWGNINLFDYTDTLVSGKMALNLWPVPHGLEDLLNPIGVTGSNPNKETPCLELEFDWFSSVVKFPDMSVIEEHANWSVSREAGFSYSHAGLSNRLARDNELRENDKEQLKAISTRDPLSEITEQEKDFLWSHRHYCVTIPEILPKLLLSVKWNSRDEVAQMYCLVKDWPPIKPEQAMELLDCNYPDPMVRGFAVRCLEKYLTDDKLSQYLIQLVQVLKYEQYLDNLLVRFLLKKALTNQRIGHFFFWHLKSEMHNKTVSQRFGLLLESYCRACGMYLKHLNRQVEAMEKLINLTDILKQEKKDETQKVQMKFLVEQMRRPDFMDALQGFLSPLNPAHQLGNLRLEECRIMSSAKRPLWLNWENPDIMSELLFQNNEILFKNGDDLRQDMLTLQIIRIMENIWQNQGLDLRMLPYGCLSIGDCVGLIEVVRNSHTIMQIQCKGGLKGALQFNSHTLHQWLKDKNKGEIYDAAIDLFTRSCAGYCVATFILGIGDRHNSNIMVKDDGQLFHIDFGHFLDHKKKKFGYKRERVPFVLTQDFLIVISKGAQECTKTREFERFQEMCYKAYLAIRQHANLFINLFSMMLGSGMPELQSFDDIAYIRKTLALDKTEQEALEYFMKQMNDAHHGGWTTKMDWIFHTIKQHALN

DAPK2 = DAPK2 (Homo sapiens, UniProt Q9UIK4)
Chain of DAPK2 (Q9UIK4 whole entry): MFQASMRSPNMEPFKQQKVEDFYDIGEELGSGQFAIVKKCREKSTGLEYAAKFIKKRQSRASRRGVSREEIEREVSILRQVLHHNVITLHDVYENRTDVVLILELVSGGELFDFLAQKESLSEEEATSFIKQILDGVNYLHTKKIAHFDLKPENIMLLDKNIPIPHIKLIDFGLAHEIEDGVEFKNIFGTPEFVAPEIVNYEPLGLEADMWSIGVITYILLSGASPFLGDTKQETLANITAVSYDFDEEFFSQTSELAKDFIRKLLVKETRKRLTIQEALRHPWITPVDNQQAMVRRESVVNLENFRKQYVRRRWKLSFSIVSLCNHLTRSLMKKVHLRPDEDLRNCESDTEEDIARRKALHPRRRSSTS

[2] = read-out: Percent control / Acalabrutinib
[3] = read-out: Percent control / Ibrutinib
[4] = read-out: Percent control / Tirabrutinib
[5] = read-out: Percent control / Zanubrutinib

Chain of EPHA2 (P29317 whole entry): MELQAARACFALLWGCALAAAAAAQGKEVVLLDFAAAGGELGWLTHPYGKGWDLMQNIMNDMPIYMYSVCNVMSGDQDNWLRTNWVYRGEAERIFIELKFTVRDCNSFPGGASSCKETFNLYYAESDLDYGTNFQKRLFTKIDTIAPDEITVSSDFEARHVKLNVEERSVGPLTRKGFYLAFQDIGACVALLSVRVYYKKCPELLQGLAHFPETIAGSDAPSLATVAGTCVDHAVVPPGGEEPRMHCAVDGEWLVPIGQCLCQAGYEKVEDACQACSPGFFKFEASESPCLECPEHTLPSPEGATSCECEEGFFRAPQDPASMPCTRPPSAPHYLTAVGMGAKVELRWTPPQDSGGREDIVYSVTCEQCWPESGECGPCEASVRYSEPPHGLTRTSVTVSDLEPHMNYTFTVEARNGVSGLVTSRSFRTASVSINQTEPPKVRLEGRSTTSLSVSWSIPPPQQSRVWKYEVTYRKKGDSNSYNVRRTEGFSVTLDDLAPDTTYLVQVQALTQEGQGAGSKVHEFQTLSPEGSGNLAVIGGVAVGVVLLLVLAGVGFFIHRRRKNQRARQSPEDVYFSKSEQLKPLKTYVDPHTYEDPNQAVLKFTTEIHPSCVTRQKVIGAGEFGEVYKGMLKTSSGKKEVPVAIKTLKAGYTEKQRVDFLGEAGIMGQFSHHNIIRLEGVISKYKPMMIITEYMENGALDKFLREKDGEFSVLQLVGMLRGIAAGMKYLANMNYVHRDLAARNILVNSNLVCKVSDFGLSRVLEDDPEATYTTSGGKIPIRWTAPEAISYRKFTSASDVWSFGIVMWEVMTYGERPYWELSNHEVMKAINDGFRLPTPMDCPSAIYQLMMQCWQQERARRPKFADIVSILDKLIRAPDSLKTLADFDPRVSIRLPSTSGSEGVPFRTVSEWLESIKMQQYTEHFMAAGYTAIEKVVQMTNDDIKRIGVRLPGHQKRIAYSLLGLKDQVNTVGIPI

Compound: CC#CC(=O)N1CCC[C@H]1c1nc(-c2ccc(C(=O)Nc3ccccn3)cc2)c2c(N)nccn12 [Acalabrutinib]
- remaining binding at 0.3 µM (EPHA2; [2]): 94%
- remaining binding at 0.3 µM (AKT3; [2]): 95%
- remaining binding at 0.3 µM (BRSK2; [2]): 94%
- remaining binding at 0.3 µM [1, 2]: 64%
- remaining binding at 0.3 µM (EGFR(L858R); [2]): 93%
- remaining binding at 0.3 µM (CAMK1D; [2]): 71%
- remaining binding at 0.3 µM (INSR; [2]): 93%
- remaining binding at 0.3 µM (TIE1; [2]): 86%
- remaining binding at 0.3 µM (TRKA; [2]): 88%

Compound: C=CC(=O)N1CCC[C@@H](n2nc(-c3ccc(Oc4ccccc4)cc3)c3c(N)ncnc32)C1 [Ibrutinib]
- remaining binding at 0.3 µM (BRSK2; [3]): 82%
- remaining binding at 0.3 µM (EGFR(L858R); [3]): 5.6%
- remaining binding at 0.3 µM (PIK3CA(I800L); [3]): 71%
- remaining binding at 0.3 µM (CAMK1D; [3]): 97%
- remaining binding at 0.3 µM (INSR; [3]): 92%
- remaining binding at 0.3 µM (TIE1; [3]): 75%
- remaining binding at 0.3 µM (TRKA; [3]): 82%
- remaining binding at 0.3 µM (DAPK2; [3]): 79%

Compound: CC#CC(=O)N1CC[C@@H](n2c(=O)n(-c3ccc(Oc4ccccc4)cc3)c3c(N)ncnc32)C1 [Tirabrutinib]
- remaining binding at 0.3 µM (EPHA2; [4]): 93%
- remaining binding at 0.3 µM (AKT3; [4]): 83%
- remaining binding at 0.3 µM [1, 4]: 88%
- remaining binding at 0.3 µM (EGFR(L858R); [4]): 97%
- remaining binding at 0.3 µM (PIK3CA(I800L); [4]): 91%
- remaining binding at 0.3 µM (CAMK1D; [4]): 99%
- remaining binding at 0.3 µM (INSR; [4]): 72%
- remaining binding at 0.3 µM (TIE1; [4]): 90%
- remaining binding at 0.3 µM (TRKA; [4]): 83%
- remaining binding at 0.3 µM (DAPK2; [4]): 88%

Compound: C=CC(=O)N1CCC([C@@H]2CCNc3c(C(N)=O)c(-c4ccc(Oc5ccccc5)cc4)nn32)CC1 [Zanubrutinib]
- remaining binding at 0.3 µM (EPHA2; [5]): 67%
- remaining binding at 0.3 µM (AKT3; [5]): 84%
- remaining binding at 0.3 µM (BRSK2; [5]): 81%
- remaining binding at 0.3 µM [1, 5]: 87%
- remaining binding at 0.3 µM (PIK3CA(I800L); [5]): 68%
- remaining binding at 0.3 µM (CAMK1D; [5]): 81%
- remaining binding at 0.3 µM (INSR; [5]): 100%
- remaining binding at 0.3 µM (TIE1; [5]): 98%
- remaining binding at 0.3 µM (TRKA; [5]): 99%
- remaining binding at 0.3 µM (DAPK2; [5]): 91%
